{"source": "patent US11523986B2", "about": "“Intranasally administered antihistamines and uses thereof” (priority 2019, dated 2022)", "key": {"[1]": {"assay": "in vitro", "conditions": "human, DPBS pH 7.4, 120 min, 37° C., diphenhydramine 100 μM, atenolol 100 μM, caffeine 50 μM co-dosed", "description": "(§1) EpiAirway™ tissues, plated in 24-well plates, and accompanying culture medium and assay buffer solutions, were purchased from MatTek Corporation (Ashland, Mass.). According to the EpiAirway™ AIR-100 Use Protocol provided by MatTek, the tissues were returned to culture immediately upon receipt. In a tissue culture hood, using sterile technique, 1.0 mL of cold medium (AIR-100-ASY) was dispensed into each well of the 6-well plate (n=3) and one tissue insert was transferred to each of the wells. The apical surface of the tissue was exposed to the air (no medium was added to the insert). The tissues were equilibrated overnight at 37° C. in a 5% CO2 incubator. The culture medium was then replaced with fresh, pre-warmed medium until use.\n(§2) The unidirectional permeation experiment was conducted according to protocol 18APCIP2 and relevant SOPs of Absorption Systems. Prior to the permeability assay, the culture medium in the plate was aspirated; and ˜1 mL of Dulbecco's phosphate-buffered saline (DPBS) was added to the well to remove any remaining residue of culture medium from the underside of the insert. The tissues were transferred to a 24-well plate with DPBS (750 μL) in each well as receiver, and dosing solution (400 μL) was added to each insert. A 100 μL aliquot was immediately removed as the 0-minute donor sample. Receiver samples (200 μL) were collected at 30, 60, and 120 minutes, replaced with an equal volume of fresh pre-warmed blank buffer at 30 and 60 minutes. The donor side was sampled (100 μL) at 0 and 120 minutes. The assay plate was placed in a humidified CO2 incubator at 37° C. during the assay period.\n(§3) After 120 minutes, the tissues were rinsed with DPBS and gently dried with tissue wipes after aspiration of the assay buffer. The insert membranes with tissues attached were carefully removed from the insert apparatus, placed in a tared centrifuge tube, and weighed.\n(§4) The apparent permeability coefficient (Papp) and recovery were calculated as follows: Papp=(dCr/dt)×Vr/(A×Cini) (1) Recovery (%)=[((Cr,final×Vr)+(Cd,final×Vd))/(Cini×Vd)]×100 (2) Recovery (%)=[((Cr,final×Vr)+(Cd,final×Vd)+(Tissue Accumulation))/(Cini×Vd)]×100 (3)\n(§5) where, • dCr/dt is the slope of cumulative receiver concentration vs. time in μM s^−1; • Vr is the volume of the receiver compartment; • Vd is the volume of the donor compartment; • A is the diffusional area of the membrane; • Cini is the donor concentration at 0 minutes in μM; • CD, final is the donor concentration at 120 minutes in μM; • Cr, final is the receiver concentration at 120 minutes in μM.\n(§6) With DPBS, pH 7.4 used on both the donor and receiver sides, permeability was initiated with addition of 0.4 mL of dosing solution into the inserts and of 0.75 mL of blank buffer into the wells of the assay plate. The assay was performed for 120 minutes in a humidified incubator at 37° C."}, "[2]": {"system": "rhinovirus colds", "conditions": "intranasal, phosphate buffer vehicle, patients; Gaffney et al. 1987; cited from earlier work"}, "[3]": {"system": "EpiAirway tissues", "conditions": "EpiAirway tissues after 120 min, 100 μM", "description": "as §1, §2, §3, §4, §5, §6"}}, "data": [{"smiles": "Cn1c(=O)c2c(ncn2C)n(C)c1=O", "note": "[Caffeine, caffeine]", "values": [{"measurement": "Papp A→B at 120 min", "setting": "[1]; pH 7.4, Papp (10^−6 cm/s) Average ± SD, apical dosing, average", "result": 29.1, "unit": "×10⁻⁶ cm/s"}, {"measurement": "Papp A→B at 120 min", "setting": "[1]; pH 7.4, Papp (10^−6 cm/s) R1, apical dosing, replicate R1", "result": 30.9, "unit": "×10⁻⁶ cm/s"}, {"measurement": "Papp A→B at 120 min", "setting": "[1]; pH 7.4, Papp (10^−6 cm/s) R2, apical dosing, replicate R2", "result": 28.2, "unit": "×10⁻⁶ cm/s"}, {"measurement": "Papp A→B at 120 min", "setting": "[1]; pH 7.4, Papp (10^−6 cm/s) R3, apical dosing, replicate R3", "result": 28.2, "unit": "×10⁻⁶ cm/s"}]}, {"smiles": "CN(C)CCOC(c1ccccc1)c1ccccc1", "note": "[Diphenhydramine, diphenhydramine]", "values": [{"measurement": "therapeutic effect in reducing signs and symptoms of rhinovirus colds", "setting": "[2]", "result": "no therapeutic effect"}, {"measurement": "Tissue Accumulation (nmol/mg) Average ± SD", "setting": "[3]; average", "result": "0.212 ± 0.0222", "unit": "nmol/mg"}, {"measurement": "Tissue Accumulation (nmol/mg) R1", "setting": "[3]; replicate R1", "result": 0.188, "unit": "nmol/mg"}, {"measurement": "Tissue Accumulation (nmol/mg) R3", "setting": "[3]; replicate R3", "result": 0.218, "unit": "nmol/mg"}]}]}
